Literature values as cited in US5409946A, “Isoxazole, isothiazole and pyrazole compounds that enhance cognitive function” (Abbott Laboratories, priority 1993, dated 1995).

Key:
[1] = cited from earlier work
nicotinic receptors = conditions: chronic administration, without affecting affinity; cited from earlier work
[2] = system: signs and symptoms of nicotine withdrawal; conditions: double-blind studies; cited from earlier work
cognitive function = conditions: acutely and chronically administered; cited from earlier work

## CN1CCCC1c1cccnc1 (centres unmarked) [nicotine]
[1]; in vivo
  pharmacokinetics: unfavorable pharmacokinetics
[1]; oral
  oral bioavailability: poor oral bioavailability
Nicotinic receptors
  up-regulation of number of receptors: 50-100%
[2]
  suppression of withdrawal signs and symptoms versus placebo: far superior to a placebo
Cognitive function
  effect on cognitive function: enhances cognitive function in rats
